Where a SMILES comes first, the peptide text is derived from it. Side-chain parts run from the residue outwards. [ ]: non-standard residue; d: D form. The star is where a group is joined. DOTA = O=C(O)CN1CCN(CC(=O)O)CCN(CC(=O)*)CCN(CC(=O)O)CC1; PEG6 = NCCOCCOCCOCCOCCOCCOCCC(=O)O; Tle = CC(C)(C)[C@H](N)C(=O)O; Nlys = NCCCCNCC(=O)O

Broadly, the tissue uptake is the percentage of the injected dose found per gram of tissue.

The subject of data set [1] is tumor. The settings on record: ^188Re-labeled peptide, day 6 after begin of treatment; cited from earlier work.
Data set [2] in a line: in vivo. The arrangement: species or system nude mice. The settings on record: nude, mouse, total radioactivity. As for the experimental part:
10–14 days after inoculation of the HT29 cells (tumor weight: 200–700 mg), the mice (about 10–12 weeks old with about 35–40 g body weight) were used for biodistribution studies. […] They were sacrificed by cervical dislocation 1 h, 4 h and 24 h after injection. Tumors and other tissues (blood, lung, liver, kidneys, heart, spleen, brain, muscle, femur and intestine) were rapidly removed and weighed. Radioactivity of the dissected tissues was measured using a gamma counter (Wallac Wizard, Perkin Elmer). Results were expressed as percentage of injected dose per gram of tissue (% ID/g), and tumor-to-organ ratios were calculated. Two randomly chosen mice were used for the determination of nonspecific tracer uptake in vivo. […] These mice were sacrificed by cervical dislocation at 4 h post injection (p.i.) and organs and tissue were removed, weighed and counted as described above.

With “(N^αHis)Ac-Arg-(N-CH3)-Arg-Pro-Dmt-Tle-Leu [NT-XIX]”, the “Tumor growth in tumor-bearing nude mice” value in data set [1] is “decreased”.
Regarding `CC(C)C[C@H](NC(=O)[C@@H](NC(=O)[C@H](Cc1ccc(O)cc1)NC(=O)[C@@H]1CCCN1C(=O)[C@H](CCCCN)NC(=O)CN(CCCCN)C(=O)[C@@H](N)CCCCNC(=O)CCOCCOCCOCCOCCOCCOCCNC(=O)CN1CCN(CC(=O)O)CCN(CC(=O)O)CCN(CC(=O)O)CC1)C(C)(C)C)C(=O)O` [[^177Lu]NT127, metal not drawn] (H-K([PEG6-DOTA])[Nlys]KPY[Tle]L-OH), in data set [2] (iv), the tissue to tissue ratio at 1 h came to 30, the tissue to tissue ratio at 24 h was determined as 60, the tissue uptake at 1 h came out at 0.05 %ID/g and the tissue uptake at 24 h is 0.01 %ID/g. Moreover, the tissue uptake at 24 h in data set [2] (iv, Accumulation in HT29 tumor) is 0.6 %ID/g. Moreover, the tissue uptake at 1 h in data set [2] (iv, Accumulation in kidney) was determined as 38 ± 1 %ID/g. For the same compound, the tissue uptake at 24 h in data set [2] (iv, Radioactivity concentration in liver) was 0.4 %ID/g. Moreover, in data set [2] (Accumulation in HT29 tumor), the tissue uptake at 4 h turned out to be 1.1 %ID/g.
